The values below come from US4810648A, “Haloarylnitrile degrading gene, its use, and cells containing the gene” (Rhone Poulenc Agrochimie, priority 1987, dated 1989).

In one data set the test system is tomato leaf sections. The data set can be described thus: Tomato leaf sections in bromoxynil-containing medium under photoautotrophic conditions. It counts as cell-based, Lycopersicon esculentum cv. UC828. Here is the method: Co-cultivation of tomato (Lycopersicon esculentum cv. UC828) cotyledonary explants was carried out as described previously with tobacco and kanamycin shoots regenerated. […] Approximately 5 mm leaf sections from surface-sterilized(10% hypochlorite; water washed) leaves were suspended in bromoxynil-containing medium at varying concentrations under photoautotrophic conditions. The media was MS salts containing 2 mg/l […], 1 mg/l isopentyladenine and 100 mg/l myoinositol and bromoxynil at 10^-5 or 10^-6 M. The same photoautotrophic conditions were employed as described for tobacco. […] Transgenic tomato plants (10-20 leaf stage) were sprayed with a commercial formulation of bromoxynil (BUCTRIL) and found to be resistant at 0.5 lbs/acre.

Data set [1] has as its target T1, Klebsiella ozaenae bromoxynil-specific nitrilase, N-terminal modified variant nit-23 (pBrx23) (Klebsiella pneumoniae, UniProt P10045).
T1 construct: natural N-terminus truncated (Bal31, about 51 nt removed) and replaced by 17 pUC19-encoded residues; purified enzyme
The data set can be described thus: Kinetics of purified N-terminal modified nitrilase. It counts as biochemical, Klebsiella pneumoniae sub-species ozaenae. The following applies: purified nit-23. Here is the method:
Plasmid pBrx9 was digested with BamH1, followed by resection with Bal31 for about 5 min to remove about 51 nt. The enzyme was inactivated, the resected linear DNA sequence ligated with BamH1 linkers, digested with BamH1 and recircularized under ligating conditions. […] This fragment was inserted into pCGN 566 which had been completely digested with BamH1 and SmaI to produce plasmid pBrx23, of 3.7Kb. Plasmid pCGN 566 is a derivative of pUC13 with polylinkers from pUC18 and pUC19 and the chloramphenicol resistance gene. The fragment from pBrx15 is inserted to be in reading frame with an upstream initiation codon and where 17 amino acids encoded by the pUC19 sequence replace amino acids of the naturally occurring nitrilase.
The following provides the sequence of the N-terminal modified nitrilase (nit-23). [drawing 3] Purification of the Wild-Type and Altered Nitrilase
Nitrilase was prepared from stationary phase MM 294 E. coli cells containing the pBrx9, pBrx11 or pBrx28 plasmids. Cultures were grown under ampicillin selection until the whole cell nitrilase assay yielded an OD640 of approximately 2.0. Cultures were centrifuged at 8,000 xg for 15 min at 4° C. The cells were washed in 0.1M potassium phosphate buffer pH 7.4, repelleted, dried, and frozen at -20° C. The pellet was thawed at 4° C. and resuspended in 40 ml 50 mM potassium phosphate buffer with 1 mM dithiothreitol, 0.1 mM EDTA (KDE). […]

In the next data set the test system is tobacco leaf sections. As to the kind of experiment: Tobacco leaf sections in bromoxynil containing media under photoautotrophic conditions. It counts as cell-based, Nicotiana tabacum cv. "Xanthi". Here is the method: The plasmids were transformed into A, tumefaciens strain LBA4404, followed by co-cultivation with tobacco (Nicotiana tabacum cv. "Xanthi") cotyledonary explants. Kanamycin-resistant shoots were regenerated into tobacoo plants in accordance with conventional techniques.
Approximately 5 mm leaf section from surface-sterilized (10% hypochloriate; water-washed) leaves were suspended in bromoxynil containing media under photoautotrophic conditions. The media employed was MS salts containing 0.93 mg/l naphthylacetic acid and 0.11 mg/l benzylaminopurine, with varying amounts of bromoxynil. The concentration of bromoxynil varied from 10^-3 to 10^-6 M at 0.1 dilutions. The photoautotrophic conditions were 5% CO2, 10% O2, 85% N2. Control tobacco leaf sections which had not been transformed were bleached (inhibited) at 10^-6 M bromoxynil. By contrast, transformed leaf sections expressing the bromoxynil-specific nitrilase from plasmids pBrx39 and pBrx40 were resistant to 10^-5 M and 10^-4 M bromoxynil, respectively.

The next data set has as its system N#Cc1cc(Br)c(O)c(Br)c1. As to the kind of experiment: Kinetics of purified wild-type bromoxynil-specific nitrilase. It counts as biochemical, Klebsiella pneumoniae sub-species ozaenae. The following applies: other: purified nit-wt, substrate not given, 30.0 °C. On the procedure:
All four colonies were grown in 200 mls L-broth containing 0.05% bromoxynil. Cells were disrupted with a French press, the high speed supernatants dialyzed against buffer containing 0.05M KPO, pH7.5; 2.5 mM dithiothreitol (DTT) and the individual crude extracts assayed for bromoxynil specific nitrilase activity. […] Cells (200 ml) were grown at 30° C. to mid log phase in M9 medium (Miller (1972) Experiments in Molecular Genetics, Cold Spring Harbor Laboratory) containing 0.1% glucose and 0.04% bromoxynil. Crude extracts were prepared by cell disruption, ultracentrifugation and dialysis of the supernatant in buffer containing 0.05M KPO4 pH 7.5 and 2.5 mM DTT. Substrate concentarion was 3 mM bromoxynil in all assays. Release of NH3 was monitored according to Harper Biochem. J. (1977) 167:685-692. The ability of K. ozaenae variant to grow in L-broth containing bromoxynil may result in acquired impermeability of the organism to the compound. However, the organism cannot grow in defined media utilizing bromoxynil as sole nitrogen source.
Nitrilase was prepared from stationary phase MM 294 E. coli cells containing the pBrx9, pBrx11 or pBrx28 plasmids. Cultures were grown under ampicillin selection until the whole cell nitrilase assay yielded an OD640 of approximately 2.0. Cultures were centrifuged at 8,000 xg for 15 min at 4° C. […]

As to `N#Cc1cc(Br)c(O)c(Br)c1` [bromoxynil, 3,5-dibromo-4-hydroxybenzonitrile], the minimal effective concentration was determined as 1 µM with tomato leaf sections (Solanum lycopersicum, control tomato leaf sections, not transformed, read-out: concentration at which leaf sections were bleached) and 1 µM with tobacco leaf sections (Nicotiana tabacum, control tobacco leaf sections, not transformed, read-out: concentration at which leaf sections were bleached (inhibited)). The entries for the “concentration to which leaf sections were resistant” value in the data set on tomato leaf sections (transformed tomato expressing nitrilase gene from pBrx29), in the data set on tobacco leaf sections (transformed tobacco leaf sections expressing nitrilase from pBrx39) and in the data set on tobacco leaf sections (transformed tobacco leaf sections expressing nitrilase from pBrx40) were 10^-5 M, 10^-5 M and 10^-4 M, respectively. The Km (in general, the concentration of substrate that gives half-maximal velocity) in data set [1] turned out to be 110 µM. Besides, the maximal velocity (Vmax) – broadly, the rate approached at saturating substrate – in data set [1] was 9 µmol/min/mg.
For “Klebsiella ozaenae bromoxynil-specific nitrilase, wild type (nit-wt, from pBrx9) (Klebsiella pneumoniae subsp. ozaenae)”, in the data set with N#Cc1cc(Br)c(O)c(Br)c1, the Michaelis constant (Km) stood at 310 µM.
